Assay results: ChEMBL document CHEMBL1201862, “PubChem BioAssay data set” (2004)
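Five compound concentrations were applied to cells in 96-well plates for 48 hours; endpoints were derived by simple linear interpolation of the resulting dose-response curve. GI50 marks 50% less growth.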 Activity calls are given as the source filed them. Cut-off read from the data, not from the text of the source: active = GI50 up to about 1.1 µM and inactive = higher.

How the values were obtained:
Assay in all cases: NCI-60 cell line screen, 48 h
RPMI-8226 = system: RPMI-8226
MDA-MB-231 = system: MDA-MB-231
HCT-116 = system: HCT-116
NCI-H460 = system: NCI-H460
MDA-N = system: MDA-N
A549 = system: A549
A498 = system: A498
IGROV-1 = system: IGROV-1
HOP-62 = system: HOP-62
CAKI-1 = system: CAKI-1
HL-60 = system: HL-60
OVCAR-5 = system: OVCAR-5
SK-MEL-5 = system: SK-MEL-5
SF-268 = system: SF-268
NCI-H226 = system: NCI-H226
SNB-75 = system: SNB-75
EKVX = system: EKVX
HOP-92 = system: HOP-92
RXF 393 = system: RXF 393
SK-OV-3 = system: SK-OV-3

| Compound | GI50 (RPMI-8226) | GI50 (MDA-MB-231) | GI50 (HCT-116) | GI50 (NCI-H460) | GI50 (MDA-N) | GI50 (A549) | GI50 (A498) | GI50 (IGROV-1) | GI50 (HOP-62) | GI50 (CAKI-1) | GI50 (HL-60) | GI50 (OVCAR-5) | GI50 (SK-MEL-5) | GI50 (SF-268) | GI50 (NCI-H226) | GI50 (SNB-75) | GI50 (EKVX) | GI50 (HOP-92) | GI50 (RXF 393) | GI50 (SK-OV-3) |
| --- | --- | --- | --- | --- | --- | --- | --- | --- | --- | --- | --- | --- | --- | --- | --- | --- | --- | --- | --- | --- |
| Cc1nc2c(O)nc3ccccc3c2o1 | > 100 µM (inactive) | > 100 µM (inactive) | > 100 µM (inactive) | > 100 µM (inactive) | > 100 µM (inactive) | > 100 µM (inactive) | > 100 µM (inactive) | 32 µM (inactive) | > 100 µM (inactive) | > 100 µM (inactive) | > 100 µM (inactive) | > 100 µM (inactive) | > 100 µM (inactive) | > 100 µM (inactive) | > 100 µM (inactive) | > 100 µM (inactive) | 48.9 µM (inactive) | > 100 µM (inactive) | > 100 µM (inactive) | > 100 µM (inactive) |
| Cc1cccc(/C=N/NC(=S)NC2CCCCC2)n1 | 6.92 µM (inactive) | 35.1 µM (inactive) | 4.02 µM (inactive) | 13.5 µM (inactive) | 28.4 µM (inactive) | 28.9 µM (inactive) | 28.1 µM (inactive) | 21.3 µM (inactive) | 20.9 µM (inactive) | 43.3 µM (inactive) | 2.86 µM (inactive) | 15.2 µM (inactive) | 29.9 µM (inactive) | 32 µM (inactive) | 15.7 µM (inactive) | 45.3 µM (inactive) | 22.4 µM (inactive) | 10.1 µM (inactive) | 18.5 µM (inactive) | 23.1 µM (inactive) |
| CC(=O)OCCn1cnc2c(NCC=C(C)C)ncnc21 | > 100 µM (inactive) | > 100 µM (inactive) | > 100 µM (inactive) | > 100 µM (inactive) | > 100 µM (inactive) | > 100 µM (inactive) | > 100 µM (inactive) | > 100 µM (inactive) | > 100 µM (inactive) | > 100 µM (inactive) | > 100 µM (inactive) | > 100 µM (inactive) | > 100 µM (inactive) | > 100 µM (inactive) | > 100 µM (inactive) | > 100 µM (inactive) | > 100 µM (inactive) | > 100 µM (inactive) | > 100 µM (inactive) | > 100 µM (inactive) |
| Nc1nc(Cl)c(N)c(NCC2(CO)CCCC2)n1 | > 100 µM (inactive) | > 100 µM (inactive) | > 100 µM (inactive) | > 100 µM (inactive) | > 100 µM (inactive) | > 100 µM (inactive) | 44.7 µM (inactive) | 84.7 µM (inactive) | 88.5 µM (inactive) | > 100 µM (inactive) | > 100 µM (inactive) | > 100 µM (inactive) | 30.8 µM (inactive) | > 100 µM (inactive) | > 100 µM (inactive) | > 100 µM (inactive) | 20.7 µM (inactive) | > 100 µM (inactive) | 78.7 µM (inactive) | 10.4 µM (inactive) |
| C=C1CC2CC[C@@]34C[C@H]5O[C@@H]6C(O[C@H]7CC[C@H](CC(=O)OC8[C@H](C)C9OC%10C[C@]%11(C[C@@H]%12O[C@]%13(C[C@H](C)[C@@H]%14O[C@H]([C@H](O)C[C@H](O)CO)C[C@@H]%14O%13)C[C@H](C)[C@@H]%12O%11)OC%10CC9O[C@H]8C[C@H]8O[C@H](CC[C@@H]1O2)C[C@@H](C)C8=C)O[C@H]7[C@@H]6O3)[C@@H]5O4 (stereo not given in full) | 0.000255 µM (active) | 0.000728 µM (active) | 0.000513 µM (active) | 0.000859 µM (active) | 0.0001 µM (active) | 0.00147 µM (active) | 0.00108 µM (active) | 0.00218 µM (active) | 0.00131 µM (active) | 0.000491 µM (active) | 0.000237 µM (active) | 0.00845 µM (active) | 0.00024 µM (active) | 0.00376 µM (active) | 0.00231 µM (active) | 0.000321 µM (active) | 0.000141 µM (active) | 0.00166 µM (active) | 0.000674 µM (active) | 0.00221 µM (active) |
